In brackets after ≈: the same amount, converted by molar mass.
Key:
MRSA KS1 = experiment: MIC, broth microdilution, MRSA KS1; assay type: cell-based, Staphylococcus aureus; settings: for MIC-fold improvement vs. vancomycin: MRSA KS1, ratio of MIC of vancomycin and MIC of analogue; for MIC: Staphylococcus aureus MRSA KS1, read-out: MIC
Protocol: (§1) The minimum inhibitory concentration (MIC) was determined using the broth microdilution method according to the antimicrobial susceptibility testing standards of the clinical and laboratory standards institute ([Clinical and Laboratory Standards Institute [CLSI], 2012]). Ultrapure water and non-inoculated broth were used as controls. In one case, a final concentration of 10 μM vancomycin was included with the vancomycin analog or control antibiotic.

S. aureus VRSA = experiment: MIC, broth microdilution, vancomycin-resistant S. aureus (VRSA); assay type: cell-based, Staphylococcus aureus; settings: for MIC: Staphylococcus aureus VRSA, read-out: MIC; for MIC-fold improvement vs. vancomycin: VRSA, ratio of MIC of vancomycin and MIC of analogue
Protocol: as §1

[1] = test system: Murine leukemia (L1210) cells; experiment: Cytostatic activity, L1210 cell proliferation; assay type: cell-based; settings: mean ± SD of three experiments; highest concentration tested 250 µM; 2 days; read-out: Toxicity (IC50) L1210
Protocol: (§2) Murine leukemia (L1210), human T-lymphocyte (CEM) and the human cervix carcinoma (HeLa) cell line were suspended at 300,000–500,000 cells/mL of culture medium, and 100 μL of a cell suspension was added to 100 μL of an appropriate dilution of the test compounds in wells of 96-well microtiter plates. After incubation at 37°C for 2 (L1210), 3 (CEM), or 4 (HeLa) days, the cell number was determined using a Coulter counter. The IC50 was defined per cell type as the compound concentration required to inhibit cell proliferation by 50% compared to the negative control ([Glowacka et al., 2017]).

S. aureus VISA/HIP5827 = experiment: MIC, broth microdilution, vancomycin-intermediate S. aureus VISA HIP5827; assay type: cell-based, Staphylococcus aureus; settings: for MIC: Staphylococcus aureus VISA/HIP5827, read-out: MIC; for MIC-fold improvement vs. vancomycin: VISA/HIP5827, ratio of MIC of vancomycin and MIC of analogue
Protocol: as §1

MRSA KS6 = experiment: MIC, broth microdilution, MRSA KS6; assay type: cell-based, Staphylococcus aureus; settings: for MIC-fold improvement vs. vancomycin: MRSA KS6, ratio of MIC of vancomycin and MIC of analogue; for MIC: Staphylococcus aureus MRSA KS6, read-out: MIC
Protocol: as §1

[2] = test system: human cervix carcinoma (HeLa) cells; experiment: Cytostatic activity, HeLa cell proliferation; assay type: cell-based; settings: mean ± SD of three experiments; highest concentration tested 250 µM; 4 days; read-out: Toxicity (IC50) HeLa
Protocol: as §2

E. faecalis VRE 6 = experiment: MIC, broth microdilution, vancomycin-resistant E. faecalis VRE 6 (VanA); assay type: cell-based, Enterococcus faecalis; settings: for MIC: Enterococcus faecalis VRE 6 (vancomycin-resistant), read-out: MIC; for MIC-fold improvement vs. vancomycin: VRE 6, ratio of MIC of vancomycin and MIC of analogue
Protocol: as §1

E. faecalis VRE 53 = experiment: MIC, broth microdilution, vancomycin-resistant E. faecalis VRE 53 (VanA); assay type: cell-based, Enterococcus faecalis; settings: for MIC: Enterococcus faecalis VRE 53 (vancomycin-resistant), read-out: MIC; for MIC-fold improvement vs. vancomycin: VRE 53, ratio of MIC of vancomycin and MIC of analogue
Protocol: as §1

MRSA KS2 = experiment: MIC, broth microdilution, MRSA KS2; assay type: cell-based, Staphylococcus aureus; settings: for MIC-fold improvement vs. vancomycin: MRSA KS2, ratio of MIC of vancomycin and MIC of analogue; for MIC: Staphylococcus aureus MRSA KS2, read-out: MIC
Protocol: as §1

E. faecalis VRE 29 = experiment: MIC, broth microdilution, vancomycin-resistant E. faecalis VRE 29 (VanA); assay type: cell-based, Enterococcus faecalis; settings: for MIC: Enterococcus faecalis VRE 29 (vancomycin-resistant), read-out: MIC
Protocol: as §1

E. faecalis VSE 1 = experiment: MIC, broth microdilution, vancomycin-sensitive E. faecalis (VSE 1); assay type: cell-based, Enterococcus faecalis; settings: for MIC: Enterococcus faecalis VSE 1 (vancomycin-sensitive), read-out: MIC; for MIC-fold improvement vs. vancomycin: VSE 1, ratio of MIC of vancomycin and MIC of analogue
Protocol: as §1

[3] = test system: L1210, CEM and HeLa cell lines; experiment: Cytostatic activity, average or summary over L1210, CEM and HeLa; assay type: cell-based; settings: average of L1210, CEM and HeLa; read-out: Toxicity (IC50) Average
Protocol: as §2

[4] = test system: human T-lymphocyte (CEM) cells; experiment: Cytostatic activity, CEM cell proliferation; assay type: cell-based; settings: mean ± SD of three experiments; highest concentration tested 250 µM; 3 days; read-out: Toxicity (IC50) CEM
Protocol: as §2

MRSA KS89 = experiment: MIC, broth microdilution, MRSA KS89; assay type: cell-based, Staphylococcus aureus; settings: for MIC-fold improvement vs. vancomycin: MRSA KS8, ratio of MIC of vancomycin and MIC of analogue; for MIC: Staphylococcus aureus MRSA KS8, read-out: MIC
Protocol: as §1

[5] = test system: S. aureus VSSA (ATCC 6538); experiment: MIC, broth microdilution, vancomycin-sensitive S. aureus (VSSA/MSSA, ATCC 6538); assay type: cell-based, Staphylococcus aureus; settings: for MIC: Staphylococcus aureus VSSA, read-out: MIC; for MIC-fold improvement vs. vancomycin: VSSA, ratio of MIC of vancomycin and MIC of analogue
Protocol: as §1

E. faecalis VRE 37 = experiment: MIC, broth microdilution, vancomycin-resistant E. faecalis VRE 37 (VanA); assay type: cell-based, Enterococcus faecalis; settings: for MIC: Enterococcus faecalis VRE 37 (vancomycin-resistant), read-out: MIC; for MIC-fold improvement vs. vancomycin: VRE 37, ratio of MIC of vancomycin and MIC of analogue
Protocol: as §1

SMILES | MIC-fold improvement vs. vancomycin (MRSA KS1) | MIC (MRSA KS1) [µM] | MIC (S. aureus VRSA) [µM] | MIC-fold improvement vs. vancomycin (S. aureus VRSA) | IC50 [1] [µM] | MIC (S. aureus VISA/HIP5827) [µM] | MIC-fold improvement vs. vancomycin (S. aureus VISA/HIP5827) | MIC-fold improvement vs. vancomycin (MRSA KS6) | MIC (MRSA KS6) [µM] | IC50 [2] [µM] | MIC (E. faecalis VRE 6) [µM] | MIC-fold improvement vs. vancomycin (E. faecalis VRE 6) | MIC (E. faecalis VRE 53) [µM] | MIC-fold improvement vs. vancomycin (E. faecalis VRE 53) | MIC-fold improvement vs. vancomycin (MRSA KS2) | MIC (MRSA KS2) [µM] | MIC (E. faecalis VRE 29) [µM] | MIC (E. faecalis VSE 1) [µM] | MIC-fold improvement vs. vancomycin (E. faecalis VSE 1) | IC50 [3] [µM] | further results
CCc1ccc(NC(=O)CNC(=O)[C@H]2NC(=O)[C@H]3NC(=O)[C@H](NC(=O)[C@@H]4NC(=O)[C@H](CC(N)=O)NC(=O)[C@H](NC(=O)[C@@H](CC(C)C)NC)[C@H](O)c5ccc(c(Cl)c5)Oc5cc4cc(c5O[C@@H]4O[C@H](CO)[C@@H](O)[C@H](O)[C@H]4O[C@H]4C[C@](C)(N)[C@H](O)[C@H](C)O4)Oc4ccc(cc4Cl)[C@H]3O)c3ccc(O)c(c3)-c3c(O)cc(O)cc32)cc1 [Vanc-13] | 2 | 0.39 (≈ 0.628 µg/mL) | 3.13 (≈ 5.04 µg/mL) | 32 | > 250 | 0.39 (≈ 0.628 µg/mL) | 16 | 2 | 0.39 (≈ 0.628 µg/mL) | 149 ± 6 | 12.5 (≈ 20.1 µg/mL) | 16 | 12.5 (≈ 20.1 µg/mL) | 32 | 4 | 0.20 (≈ 0.322 µg/mL) | 12.5 (≈ 20.1 µg/mL) | 0.39 (≈ 0.628 µg/mL) | 4 | 216 | IC50 [4]: > 250 µM; MIC-fold improvement vs. vancomycin (MRSA KS89): 2; MIC (MRSA KS89): 0.39 µM (≈ 0.628 µg/mL); MIC [5]: 0.39 µM (≈ 0.628 µg/mL); MIC-fold improvement vs. vancomycin [5]: 2; MIC (E. faecalis VRE 37): 3.13 µM (≈ 5.04 µg/mL); MIC-fold improvement vs. vancomycin (E. faecalis VRE 37): 256
CNC(CC(C)C)C(=O)NC1C(=O)NC(CC(N)=O)C(=O)NC2C(=O)NC3C(=O)NC(C(=O)NC(C(=O)NCCCNC(=O)c4ccc(C(C)(C)C)cc4)c4cc(O)cc(O)c4-c4cc3ccc4O)C(O)c3ccc(c(Cl)c3)Oc3cc2cc(c3OC2OC(CO)C(O)C(O)C2OC2CC(C)(N)C(O)C(C)O2)Oc2ccc(cc2Cl)C1O (stereo not shown) [Vanc-73] | 1 | 0.78 (≈ 1.3 µg/mL) | 6.25 (≈ 10.4 µg/mL) | 16 | 108 ± 42 | 1.56 (≈ 2.6 µg/mL) | 4 | 2 | 0.39 (≈ 0.65 µg/mL) | 81 ± 6 | 6.25 (≈ 10.4 µg/mL) | 32 | 25 (≈ 41.6 µg/mL) | 16 | 2 | 0.39 (≈ 0.65 µg/mL) | 12.5 (≈ 20.8 µg/mL) | 0.78 (≈ 1.3 µg/mL) | 2 | 106 | MIC-fold improvement vs. vancomycin (E. faecalis VRE 29; VRE 29, ratio of MIC of vancomycin and MIC of analogue): 32; IC50 [4]: 130 ± 6 µM; MIC-fold improvement vs. vancomycin (MRSA KS89): 2; MIC (MRSA KS89): 0.39 µM (≈ 0.65 µg/mL); MIC [5]: 0.78 µM (≈ 1.3 µg/mL); MIC-fold improvement vs. vancomycin [5]: 1; MIC (E. faecalis VRE 37): 25 µM (≈ 41.6 µg/mL); MIC-fold improvement vs. vancomycin (E. faecalis VRE 37): 16

Source: PMC6001238, “Iterative Chemical Engineering of Vancomycin Leads to Novel Vancomycin Analogs With a High in Vitro Therapeutic Index” (Frontiers in Microbiology, 2018)
